Patent publication US20230348362A1, “LIPID COMPOUNDS AND LIPID NANOPARTICLE COMPOSITIONS” (Suzhou Abogen Biosciences Co., Ltd., priority 2021, published 2023)

Experiments:
Format in all cases: physicochemical
[1] = Apparent pKa of LNP formulations, TNS fluorescence assay; conditions: LNP cationic lipid/DSPC/cholesterol/DMG-PEG 50/10/38.5/1.5 mol %
How it was run: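 LNPs (cationic lipid/DSPC/cholesterol/DMG-PEG 50/10/38.5/1.5 mol %) diluted to 0.1 mg/mL total lipid in citrate/phosphate/borate/NaCl buffers spanning pH 3–9 with TNS. Fluorescence (ex 325, em 435 nm) read at room temperature; pKa taken as the pH at half-maximal intensity from sigmoidal fit.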

[2] = Lipid nanoparticle size and polydispersity by dynamic light scattering; conditions: LNP of lipid/DSPC/cholesterol/PEG-lipid 50:10:38.5:1.5 encapsulating hEPO mRNA
How it was run: (§1)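 LNPs made from ionizable lipid/DSPC/cholesterol/PEG-lipid (50:10:38.5:1.5) and mRNA in citrate pH 4 by microfluidic mixing, lipid:mRNA about 10:1–30:1 w/w, then dialysed into DPBS and filtered. Size and PDI measured by DLS in backscatter mode; encapsulation efficiency measured by RiboGreen assay.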

[3] = Encapsulation efficiency of lipid nanoparticles, Quant-it Ribogreen RNA assay; conditions: LNP of lipid/DSPC/cholesterol/PEG-lipid 50:10:38.5:1.5 encapsulating hEPO mRNA
How it was run: as §1

Apparent Pka [1]	polydispersity [2]	size (nm) [2]	Encapsulation Efficiency [3]	SMILES
6.668	0.033	76.81 nm	92.20%	CCCCCCCCC(CCCCCC)CNC(=O)CCCCCN(CCCCCO)CCN(CCCCC(COC(=O)CCCCCCC)COC(=O)CCCCCCC)C1CCCCCC1 (stereo not shown) [Compound 225]
6.608	0.039	95.78 nm	87.79%	CCCCCCCCC(CCCCCC)CNC(=O)CCCCCN(CCCCCO)CCN(CCCCC(COC(=O)CCCCCCC)COC(=O)CCCCCCC)C1CCCCC1 (stereo not shown) [Compound 209]
6.826	0.102	77.45 nm	87.45%	CCCCCCCCCCCOC(=O)CCOCCN(CCN(CCO)CCOCCC(=O)OCC(CCCCCCCC)CCCCCCCC)C1CCC1 [Compound 116]
6.831	0.040	84.74 nm	88.64%	CCCCCCCCC(CCCCCC)CNC(=O)CCCCCN(CCO)CCN(CCCCC(COC(=O)CCCCCCC)COC(=O)CCCCCCC)C1CCC1 (stereo not shown) [Compound 136]
6.731	0.026	66.08 nm	95.4%	CCCCCCCCC(CCCCCCCC)CC(=O)NCCCCCN(CCN(CCO)CCCCCOC(=O)CC(CCCCCCCC)CCCCCCCC)C1CCC1 [Compound 61]
5.740	0.034	55.02 nm	84.0%	CCCCCCCCC(CCCCCCCC)COC(=O)CCCCCN(CCO)CCN(CCCCCC(=O)OCC(CCCCCCCC)CCCCCCCC)Cc1ccc(C)cc1 [Compound 39]
6.195	0.019	100.3 nm	88.18%	CCCCCCCCC(CCCCCCCC)CNC(=O)CCCCCN(CCN(CCCCCCCCCO)CCCCCC(=O)OCC(CCCCCCCC)CCCCCCCC)C1CCC1 [Compound 78]
7.287	0.087	57.20 nm	97.00%	CCCCCCCCC(CCCCCCCC)CNC(=O)CCCCCN(CCNc1c(NC)c(=O)c1=O)CCN(C)CCCCCC(=O)OCC(CCCCCCCC)CCCCCCCC [Compound 96]
7.327	0.1	110 nm	97.7%	CCCCCCCCCCCC(=O)NCCCCCN(CCN(CCO)CCCCCNC(=O)CC(CCCCCCCC)CCCCCCCC)C1CCCCC1 [Compound 58]
6.448	0.061	58.34 nm	90.26%	CCCCCCCCCCCC(=O)OCCCCCN(CCN(CCO)CCCCCOC(=O)CC(CCCCCCCC)CCCCCCCC)C1CCCCCC1 [Compound 94]
6.298	0.037	66.29 nm	91.0%	CCCCCCCCCCCOC(=O)CCCCCN(CCN(CCO)CCCCCC(=O)OCC(CCCCCCCCCC)CCCCCCCCCC)C1CCCCC1 [Compound 47]
6.925	0.153	104.2 nm	83.82%	CCCCCCCCC(CCCCCC)CNC(=O)CCCCCN(CCCCN(CCO)CCCCC(COC(=O)CCCCCCC)COC(=O)CCCCCCC)C1CC1 (stereo not shown) [Compound 195]
6.447	0.153	73.05 nm	89.88%	CCCCCCCCCCCC(=O)OCC(CCCCN(CCO)CCN(CCCCC(COC(=O)CCCCCCCCCCC)COC(=O)CCCCCCCCCCC)C1CCC1)COC(=O)CCCCCCCCCCC [Compound 169]
6.56	0.073	99.12 nm	92.7%	CCCCCCCCCCCOC(=O)CCCCCN(CCN(CCO)CCCCCC(=O)OCC(CCCCCC)CCCCCCCC)C1CCCC1 (stereo not shown) [Compound 5]
6.691	0.053	85.95 nm	86.63%	CCCCCCCCC(CCCCCC)CNC(=O)CCCCCN(CCOCCO)CCN(CCCCC(COC(=O)CCCCCCC)COC(=O)CCCCCCC)C1CCCCCCC1 (stereo not shown) [Compound 208]
5.786	0.235	59.59 nm	93.4%	CCCCCCCCCCCOC(=O)CCCCCN(CCN(CCO)CCCCCC(=O)OCC(CCCCCCCC)CCCCCCCC)C1CC(F)(F)C1 [Compound 50]
6.593	0.054	84.18 nm	92.81%	CCCCCCCCCCCOC(=O)CCCCCN(CCN(CCO)CCCCCC(OCCCCCCCC)OCCCCCCCC)C1CCC1 [Compound 200]

Apparent Pka [1]	polydispersity [2]	size (nm) [2]	Encapsulation Efficiency [3]	SMILES
6.633	0.033	74.18 nm	92.60%	CCCCCCCCC(CCCCCCCC)CC(=O)NCCCCCN(CCN(CCO)CCCCCOC(=O)CC(CCCCCCCC)CCCCCCCC)C1CCCC1 [Compound 72]
7.262	0.177	81.36 nm	97.95%	CCCCCCCCC(CCCCCCCC)COC(=O)CCCCCN(C)C1CCC(N(CCO)CCCCCC(=O)OCC(CCCCCCCC)CCCCCCCC)CC1 (stereo not shown) [Compound 64]
6.298	0.051	55.27 nm	91.82%	CCCCCCCCC(CCCCCCCC)COC(=O)CCCCCN(CCNc1c(NC)c(=O)c1=O)CCN(CCCCCC(=O)OCC(CCCCCCCC)CCCCCCCC)C1CCC1 [Compound 81]
6.582	0.014	80.12 nm	91.34%	CCCCCCCCCCCC(=O)OCCCCCN(CCN(CCO)CCCCCOC(=O)CC(CCCCCCCC)CCCCCCCC)C1CCC1 [Compound 92]
6.327	0.103	91.17 nm	94.13%	CCCCCCCC(=O)OCC(CCCCN(CCO)CCCCN(CCCCC(COC(=O)CCCCCCC)COC(=O)CCCCCCC)C1CCC1)COC(=O)CCCCCCC [Compound 219]
6.552	0.066	82.86 nm	95.18%	CCCCCCCCC(CCCCCCCC)COC(=O)CCCCCN1CCC(N(CCO)CCCCC(COC(=O)CCCCCCC)COC(=O)CCCCCCC)CC1 [Compound 261]
6.724	0.022	65.95 nm	86.0%	CCCCCCCCC(CCCCCCCC)CNC(=O)CCCCCN(CCO)CCN(CCCCCC(=O)OCC(CCCCCCCC)CCCCCCCC)C1CCC1 [Compound 15]
6.28	0.071	70.67 nm	89.57%	CCCCCCCCC(CCCCCC)CNC(=O)CCCCCN(CCO)CCN(CCCCC(COC(=O)CCCCCCC)COC(=O)CCCCCCC)C1CC1 (stereo not shown) [Compound 155]
6.513	0.092	75.12 nm	92.85%	CCCCCCCCC(=O)OCC(CCCCN(CCO)CCN(CCCCC(COC(=O)CCCCCCCC)COC(=O)CCCCCCCC)C1CCC1)COC(=O)CCCCCCCC [Compound 166]
6.593	0.111	75.27 nm	90.39%	CCCCCCCC(=O)OCC(CCCCN(CCO)CCCCN(CCCCC(COC(=O)CCCCCCC)COC(=O)CCCCCCC)C1CCCCC1)COC(=O)CCCCCCC [Compound 185]
6.748	0.027	104.1 nm	85.65%	CCCCCCCCC(CCCCCC)CNC(=O)CCCCCN(CCCCCO)CCN(CCCCC(COC(=O)CCCCCCC)COC(=O)CCCCCCC)C1CCCC1 (stereo not shown) [Compound 224]
6.579	0.028	83.92 nm	97.0%	CCCCCCCCC(CCCCCCCC)COC(=O)CCCCCN(C)CCN(CCCCCC(=O)OCC(CCCCCCCC)CCCCCCCC)C1CCC(O)CC1 (stereo not shown) [Compound 51]
6.668	0.059	95.00 nm	93.69%	CCCCCCCCCOC(=O)CCCCCCCN1CCC(N(CCO)CCCCCCCC(=O)OC(CCCCCCCC)CCCCCCCC)CC1 [Compound 177]
6.182	0.099	68.28 nm	84.58%	CCCCCCCCC(CCCCCC)COC(=O)CCCCCN(CCO)CCN(CCCCC(COC(=O)CCCCCCC)COC(=O)CCCCCCC)C1CCCCCCC1 (stereo not shown) [Compound 144]
6.162	0.114	57.78 nm	93.90%	CCCCCCCCC(CCCCCC)COC(=O)CCCCCN(CCO)CCN(CCCCCC(=O)OCC(CCCCCC)CCCCCCCC)C1CCCCCC1 (stereo not shown) [Compound 24]
6.364	0.012	89.42 nm	92.93%	CCCCCCCCC(CCCCCCCC)COC(=O)CCOCCN(CCO)CCN(CCOCCC(=O)OCC(CCCCCCCC)CCCCCCCC)C1CCCCC1 [Compound 113]
6.485	0.006	84.87 nm	92.71%	CCCCCCCCC(CCCCCCCC)CNC(=O)CCCCCN(CCN(CCCCO)CCCCCC(=O)OCC(CCCCCCCC)CCCCCCCC)C1CCC1 [Compound 77]
